Assay results published in article PMC9919861, “Homoleptic Complexes of Heterocyclic Curcuminoids with Mg(II) and Cu(II): First Conformationally Heteroleptic Case, Crystal Structures, and Biological Properties” (Molecules, 2023).
Like-named read-outs stand apart in the source and are kept apart here.

Assays:
[1] = test system: healthy monkey kidney cell line (COS-7); assay: Cytotoxicity towards healthy cell line; assay type: cell-based; details: COS7
[2] = test system: lipid peroxidation in rat brain homogenate; assay: Inhibition of lipid peroxidation (TBARS) in rat brain homogenate, FeSO4-induced; assay type: biochemical; details: for Inhibition (%) of lipid peroxidation / TBARS / IC50: mean ± SEM, n = 3; for IC50: rat brain homogenate, TBARS
Description: Adult male Wistar rats (200–250 g) were provided by the Instituto de Fisiología Celular, Universidad Nacional Autónoma de México (UNAM). The procedures and care of animals were conducted in conformity with the Mexican Official Norm for Animal Care and Handling NOM-062-ZOO-1999. They were maintained at 23 ± 2 °C on a 12/12 h light-dark cycle with ad libitum access to food and water.
Animal sacrifice was carried out avoiding unnecessary pain. The rats were sacrificed with CO2. The cerebral tissue (whole brain) was rapidly dissected and homogenized in phosphate-buffered saline (PBS) solution (0.2 g of KCl, 0.2 g of KH2PO4, 8 g of NaCl, and 2.16 g of NaHPO4.7H2O/L, pH adjusted to 7.4) as described elsewhere to produce a 1/10 (w/v) homogenate. The homogenate was centrifuged at 800 rcf (relative centrifugal field) for 10 min. The supernatant protein content was measured using Folin and Ciocalteu’s phenol reagent and adjusted with PBS at 2.666 mg of protein/mL.
As an index of lipid peroxidation, TBARS levels were measured using rat brain homogenates according to the method described by Ng and co-workers, with some modifications. A supernatant (375 µL) was added with 50 µL of 20 µM EDTA and 25 µL of each sample concentration dissolved in DMSO (25 µL of DMSO for the control group) and incubated at 37 °C for 30 min. The lipid peroxidation was started adding 50 µL of freshly prepared 100 µM FeSO4 solution (final concentration 10 µM) and incubated at 37 °C for 1h. The TBARS measurements were obtained as described by Ohkawa and co-workers, with some modifications. To each tube 500 µL of TBA reagent (0.5% 2-thiobarbituric acid in 0.05 N NaOH and 30% trichloroacetic acid, in 1:1 ratio) was added and the final suspension was cooled on ice for 10 min, centrifuged at 13,400 rcf for 5 min and heated at 80 °C in a water bath for 30 min. After cooling at room temperature, the absorbance of 200 µL of supernatant was measured at λ = 540 nm in a Microplate Reader Synergy/HT BIOTEK Instrument, Inc., Winooski, VT, USA. The concentration of TBARS was calculated by interpolation on a standard curve of tetra-methoxypropane (TMP) as a precursor of MDA [38]. Results are expressed as n moles of TBARS per mg of protein. The inhibition ratio (IR [%]) was calculated using the formula IR = (C − E) × 100/C, where C is the control absorbance and E is the sample absorbance. Butylated hydroxytoluene (BHT) and α tocopherol were used as positive standards. All data are presented as mean ± standard error (SEM). The data were analyzed by one-way analysis of variance (ANOVA) followed by Dunnett’s test for comparison against a control. Values of p ≤ 0.05 (*) and p ≤ 0.01 (**) were considered statistically significant.

[3] = test system: MCF-7 (human mammary adenocarcinoma); assay: Cytotoxicity, sulforhodamine B (SRB) microculture assay; assay type: cell-based; details: for inhibition at 25 µM: MCF7, 25 μM, read-out: % of Inhibition (cytotoxic screening)
Description: (§1) The cytotoxicity of all compounds was tested against six cancer cell lines: U251 (human glioblastoma cell line), PC-3 (human prostate adenocarcinoma), K562 (human chronic myelogenous leukemia), HCT-15 (human colon adenocarcinoma), MCF-7 (human mammary adenocarcinoma), and SKLU-1 (human lung adenocarcinoma). Cell lines were supplied by the U.S. National Cancer Institute (NCI). The cell lines were cultured in an RPMI-1640 medium supplemented with 10% fetal bovine serum, […] L-glutamine, 10,000 units/mL penicillin G sodium, 10,000 µg/mL streptomycin sulfate, 25 µg/mL amphotericin B (Invitrogen/Gibco™, Thermo Fisher Scientific, Waltham, MA, USA), and 1% non-essential amino acids (Gibco). They were maintained at 37 °C in a humidified atmosphere with 5% CO2. […] The human tumor cytotoxicity was determined using the protein-binding dye sulforhodamine B (SRB) in a microculture assay to measure cell growth, as described in the protocols established by the NCI [39, 40, 41].

[4] = test system: HCT-15 (human colon adenocarcinoma); assay: as above; assay type: cell-based; details: for inhibition at 25 µM: read-out: % of Inhibition (cytotoxic screening)
Description: as §1

[5] = test system: PC-3 (human prostate adenocarcinoma); assay: as above; assay type: cell-based; details: for inhibition at 25 µM: read-out: % of Inhibition (cytotoxic screening)
Description: as §1

[6] = test system: U251 (human glioblastoma cell line); assay: as above; assay type: cell-based; details: for inhibition at 25 µM: U-251, 25 μM, read-out: % of Inhibition (cytotoxic screening)
Description: as §1

[7] = test system: K562 (human chronic myelogenous leukemia); assay: as above; assay type: cell-based; details: for inhibition at 25 µM: read-out: % of Inhibition (cytotoxic screening)
Description: as §1

[8] = test system: SKLU-1 (human lung adenocarcinoma); assay: as above; assay type: cell-based; details: for inhibition at 25 µM: SK-LU-1, 25 μM, read-out: % of Inhibition (cytotoxic screening)
Description: as §1

[9] = Cytotoxicity towards healthy cell line; assay type: cell-based, monkey; details: monkey, COS-7 kidney cells; COS7; 25 μM; read-out: % of Inhibition (cytotoxic screening)
[10] = concentration 1 (unit not given)
[11] = concentration 10 (unit not given)
[12] = concentration 100 (unit not given)

Row | SMILES | % of Inhibition (cytotoxic screening) ([1]; 25 μM) | % of Inhibition (lipoperoxidation screening) [2, 10] | % of Inhibition (lipoperoxidation screening) [2, 11] | % of Inhibition (lipoperoxidation screening) [2, 12] | % of Inhibition (cytotoxic screening) ([3]; 25 μM) | % of Inhibition (cytotoxic screening) ([5]; 25 μM) | % of Inhibition (cytotoxic screening) ([6]; 25 μM) | % of Inhibition (cytotoxic screening) ([7]; 25 μM) | % of Inhibition (cytotoxic screening) ([8]; 25 μM) | inhibition at 25 µM [9] | inhibition at 25 µM ([3]; Homo sapiens) | inhibition at 25 µM ([4]; Homo sapiens, 25 μM) | inhibition at 25 µM ([5]; Homo sapiens, 25 μM) | inhibition at 25 µM ([6]; Homo sapiens) | inhibition at 25 µM ([7]; Homo sapiens, 25 μM) | inhibition at 25 µM ([8]; Homo sapiens) | also measured
1 | Cn1cccc1/C=C/C(=O)C=C([O-])/C=C/c1cccn1C.Cn1cccc1/C=C/C(=O)C=C([O-])/C=C/c1cccn1C.[Cu+2] [N-methyl-pyrCurc-Cu] | 100% | −7.20% | 38.48% | 71.20% | 100% | 64.99% | 71.62% | 74.67% | 100% | – | – | – | – | – | – | – | IC50 [3]: 10.8 ± 1.7 µM; IC50 [4]: 12.9 ± 2.1 µM; % of Inhibition (cytotoxic screening) ([4]; 25 μM): 100%; IC50 [6]: 10.6 ± 1 µM; IC50 [7]: 5.9 ± 1.5 µM; IC50 [8]: 10.3 ± 1 µM
2 | O=C(/C=C(O)/C=C/c1ccco1)/C=C/c1ccco1 [FuranCurc, Furancurcumin] | – | −6.24% | 1.59% | 93.46% | – | – | – | – | – | 46.2% | 0% | 0% | 10.8% | 0% | 6.4% | 0% | Inhibition (%) of lipid peroxidation ([2]; 13.34 μM): 5.6 ± 5.31%; TBARS ([2]; 13.34 μM): 9.385 ± 0.416 nmol/mg prot.; Inhibition (%) of lipid peroxidation ([2]; 17.78 μM): 13.14 ± 5.84%; TBARS ([2]; 17.78 μM): 8.634 ± 0.462 nmol/mg prot.; Inhibition (%) of lipid peroxidation ([2]; 23.71 μM): 25.93 ± 9.98%; TBARS ([2]; 23.71 μM): 7.356 ± 0.928 nmol/mg prot.; Inhibition (%) of lipid peroxidation ([2]; 31.62 μM): 48.97 ± 13.11%; TBARS ([2]; 31.62 μM): 5.091 ± 1.356 nmol/mg prot.; Inhibition (%) of lipid peroxidation ([2]; 42.17 μM): 64.24 ± 10.44%; TBARS ([2]; 42.17 μM): 3.590±1.114 nmol/mg prot.; Inhibition (%) of lipid peroxidation ([2]; 56.23 μM): 81.06 ± 1.43%; TBARS ([2]; 56.23 μM): 1.891±0.178 nmol/mg prot.; Inhibition (%) of lipid peroxidation ([2]; 74.13 μM): 88.25 ± 1.57%; TBARS ([2]; 74.13 μM): 1.167±0.148 nmol/mg prot.; IC50 [2]: 33.9 ± 4.65 µM; IC50 ([5]; Homo sapiens): 35.9 ± 3.9 µM; IC50 ([6]; Homo sapiens, U-251): 11.7 ± 2.9 µM; IC50 ([8]; Homo sapiens, SK-LU-1): 15.5 ± 2 µM
3 | Cn1cccc1/C=C/C(=O)/C=C(O)/C=C/c1cccn1C [N-methyl-pyrCurc, N-methylpyrrolcurcumin] | – | 13.71% | 17.41% | 84.75% | – | – | – | – | – | 100% | 99.9% | 18.1% | 60.4% | 52.8% | 65.8% | 100% | IC50 ([3]; Homo sapiens, MCF7): 27.3 ± 4.3 µM; IC50 ([4]; Homo sapiens): 22.4 ± 2.4 µM; IC50 ([6]; Homo sapiens, U-251): 25.8 ± 2.7 µM; IC50 ([7]; Homo sapiens): 12.9 ± 1 µM; IC50 ([8]; Homo sapiens, SK-LU-1): 13 ± 1.9 µM
4 | COc1cc(/C=C/C(=O)CC(=O)/C=C/c2ccc(O)c(OC)c2)ccc1O [Curc, Curcumin] | – | – | – | – | – | – | – | – | – | 71.6% | 82.4% | 80% | 94.4% | 67.1% | 80.1% | 94.5% | –
5 | O=C(C=C([O-])/C=C/c1ccco1)/C=C/c1ccco1.O=C(C=C([O-])/C=C/c1ccco1)/C=C/c1ccco1.[Cu+2] [FuranCurc-Cu] | 100% | 0.83% | 27.46% | 88.94% | 92.8% | 100% | 100% | 90.1% | 95.0% | – | – | – | – | – | – | – | % of Inhibition (cytotoxic screening) ([4]; 25 μM): 72.4%; IC50 [5]: 3 ± 0.1 µM; IC50 [6]: 4 ± 0.3 µM; IC50 [8]: 6.5 ± 0.2 µM
6 | O=C(C=C([O-])/C=C/c1cccs1)/C=C/c1cccs1.O=C(C=C([O-])/C=C/c1cccs1)/C=C/c1cccs1.[Cu+2] [ThiopheneCurc-Cu] | 0% | 5.67% | 51.00% | 53.96% | 57.9% | 63.6% | 58.2% | 84.4% | 91.0% | – | – | – | – | – | – | – | Inhibition (%) of lipid peroxidation ([2]; 3.16 μM): 12.51 ± 3.57%; TBARS ([2]; 3.16 μM): 4.665 ± 0.144 nmol/mg prot.; Inhibition (%) of lipid peroxidation ([2]; 5.62 μM): 31.7 ± 2.33%; TBARS ([2]; 5.62 μM): 3.651 ± 0.200 nmol/mg prot.; Inhibition (%) of lipid peroxidation ([2]; 10 μM): 49.46 ± 1.96%; TBARS ([2]; 10 μM): 2.693 ± 0.029 nmol/mg prot.; Inhibition (%) of lipid peroxidation ([2]; 17.78 μM): 57.25 ± 1.19%; TBARS ([2]; 17.78 μM): 2.280 ± 0.052 nmol/mg prot.; Inhibition (%) of lipid peroxidation ([2]; 31.62 μM): 55.9 ± 1.51%; TBARS ([2]; 31.62 μM): 2.351 ± 0.046 nmol/mg prot.; Inhibition (%) of lipid peroxidation ([2]; 56.23 μM): 58.14 ± 2.66%; TBARS ([2]; 56.23 μM): 2.225 ± 0.055 nmol/mg prot.; IC50 [2]: 10.3 ± 0.59 µM; IC50 [7]: 38.6 ± 8.1 µM
7 | Cn1cccc1/C=C/C(=O)C=C([O-])/C=C/c1cccn1C.Cn1cccc1/C=C/C(=O)C=C([O-])/C=C/c1cccn1C.[Mg+2] [N-methyl-pyrCurc-Mg] | – | −4.22% | 12.24% | 69.70% | – | – | – | – | – | – | – | – | – | – | – | – | % of Inhibition (cytotoxic screening) ([1]; 12.5 μM): 23.4%; % of Inhibition (cytotoxic screening) ([3]; 12.5 μM): 35.7%; % of Inhibition (cytotoxic screening) ([4]; 12.5 μM): 15.8%; % of Inhibition (cytotoxic screening) ([5]; 12.5 μM): 1.4%; % of Inhibition (cytotoxic screening) ([6]; 12.5 μM): 19.5%; % of Inhibition (cytotoxic screening) ([7]; 12.5 μM): 28.8%; % of Inhibition (cytotoxic screening) ([8]; 12.5 μM): 18.1%
